{
  "source": "patent US8268976B2",
  "about": "“Flea GABA receptor subunit nucleic acid molecules” (Heska Corporation, priority 2000, dated 2012)",
  "key": {"cat fleas [1]": {"tested_on": "cat fleas", "experiment": "Survival of dieldrin-exposed fleas from the heterozygous population, sorted by sequenced genotype at amino acid 285", "assay_type": "in vivo, Ctenocephalides felis", "conditions": "10 mM and 50 mM dieldrin, pooled", "method": "The following method was used to determine the genotype of individual fleas. Individual fleas were physically crushed with a pipette tip in a microcentrifuge tube with 30 μl of DNAzol, available from Gibco BRL, Rockville, Md., then heated to 95° C. for 5 minutes. The mixture was centrifuged for 2 minutes, the liquid was removed and DNA was precipitated with ethanol. The precipitated DNA was centrifuged, the ethanol was removed and the pellet was resuspended in 30 μl of distilled water. […] The following PCR thermocycling and reaction conditions were used (1) one cycle of 95° C. for 30 seconds, (2) 35 cycles of 94° C. for 10 seconds, 52° C. for 30 seconds, and 72° C. 30 seconds, in reactions containing 1× AmpliTaq Buffer, 2.0 U AmpliTaq polymerase, available from Perkin Elmer, Foster City, Calif., 0.2 mM dNTP's, and 0.5 uM each primer.\nThe PCR product was separated by gel electrophoresis and purified using a Qiaquick™ column, available from Qiagen to produce an approximately 240-nucleotide molecule. The 240-nucleotide product was then sequenced using primers 285for and 285rev and dRhodamine terminator chemistry and the sequence was read to determine whether the individual was homozygous for serine or alanine, or a heterozygote.\n(§1) Dieldrin was dissolved in dimethylsulfoxide (DMSO) at concentrations ranging from 0.001 mM to 1000 mM. About 1 ul of dissolved dieldrin from each concentration was spotted onto a 6 mm diameter GF/C filter disk (Whatman, Inc. Clifton, N.J.) in the bottom of a 4 ml screw-top glass vial and allowed to air dry for 24 hours. Negative control vials were prepared in the same manner except that no dieldrin was dissolved in the DMSO. Each dieldrin concentration was tested in triplicate for each of the three flea populations. About 25 newly emerged cat fleas were sedated at 4° C. and transferred to each vial. Each vial was sealed with a thin, perforated Teflon septum secured by an open top screw cap and held vertically in the dark. After about 30 hours, the healthy live, moribund, and dead fleas in each vial were counted."}, "cat fleas [2]": {"tested_on": "cat fleas", "experiment": "Dieldrin filter-disk vial exposure of fleas, mortality (LC50) per flea population", "conditions": "Ctenocephalides felis, in Felis catus, 30 h, about 1 ul of DMSO solution on filter disk in vial, about 30 hours", "method": "as §1"}},
  "note": "Like-named read-outs stand apart in the source and are kept apart here.",
  "data": [
    {"molecule": "ClC1=C(Cl)[C@]2(Cl)[C@@H]3[C@@H]4C[C@@H]([C@H]5O[C@@H]45)[C@@H]3[C@@]1(Cl)C2(Cl)Cl", "note": "[dieldrin]", "values": [
      {"measurement": "number of dead fleas", "setting": "cat fleas [1]; of 1 homozygous alanine flea", "result": 1},
      {"measurement": "number of dead fleas", "setting": "cat fleas [1]; of 21 homozygous serine fleas", "result": 4},
      {"measurement": "number of live fleas", "setting": "cat fleas [1]; of 21 homozygous serine fleas", "result": 16},
      {"measurement": "number of moribund fleas", "setting": "cat fleas [1]; of 21 homozygous serine fleas", "result": 1},
      {"measurement": "number of dead fleas", "setting": "cat fleas [1]; of 29 heterozygotes", "result": 24},
      {"measurement": "number of live fleas", "setting": "cat fleas [1]; of 29 heterozygotes", "result": 2},
      {"measurement": "number of moribund fleas", "setting": "cat fleas [1]; of 29 heterozygotes", "result": 3},
      {"measurement": "LC50", "setting": "cat fleas [2]; read-out: LC50 (concentration of dieldrin at which 50% of the fleas were killed), heterozygous alanine/serine flea population (amino acid 285)", "result": 1000, "unit": "µM"},
      {"measurement": "LC50", "setting": "cat fleas [2]; read-out: LC50 (concentration of dieldrin at which 50% of the fleas were killed), homozygous alanine flea population (amino acid 285)", "result": 200, "unit": "µM"},
      {"measurement": "LC50", "setting": "cat fleas [2]; read-out: LC50 (concentration of dieldrin at which 50% of the fleas were killed), homozygous serine flea population (amino acid 285)", "result": 30000, "unit": "µM"}
    ]}
  ]
}
